According to patent publication US7223791B2, “Function regulator for retinoid relative receptor” (Takeda Pharmaceutical Company Limited, priority 2001, dated 2007):

**Q.** For Nc1ccccc1-c1nnc(-c2ccc(C(=O)O)cc2)o1 [Example 55, 4-[5-(2-aminophenyl)-1,3,4-oxadiazol-2-yl]benzoic acid], which melting point is on record?
**A.** The melting point was greater than 300 °C.

**Q.** With O=C(O)c1ccc(-c2nnc(-c3ccc(C(F)(F)F)cc3)s2)cc1 [Example 59, 4 [5-(4-trifluoromethylphenyl)-1,3,4-thiadiazol-2-yl]benzoic acid] as the compound, how does the melting point read?
**A.** The melting point was greater than 300 °C.

**Q.** For COC(=O)c1ccc(-c2nc(-c3ccc(Cl)cc3)no2)c([N+](=O)[O-])c1 [Example 60, methyl 4-[3-(4-chlorophenyl)-1,2,4-oxadiazol-5-yl]-3-nitrobenzoate], which melting point is on record?
**A.** Its melting point is 189 to 190 °C.

**Q.** With O=C(O)c1ccc(-c2nc(-c3ccc(Cl)cc3)no2)c([N+](=O)[O-])c1 [Example 62, 4-[3-(4-chlorophenyl)-1,2,4-oxadiazol-5-yl]-3-nitrobenzoic acid] as the compound, how does the melting point read?
**A.** Its melting point is 257 to 258 °C.

**Q.** With O=C(O)c1ccc(-c2nc(-c3ccc(C(F)(F)F)cc3)no2)c([N+](=O)[O-])c1 [Example 63, 3-nitro-4-[3-(4-trifluoromethylphenyl)-1,2,4-oxadiazol-5-yl]benzoic acid] as the compound, how does the melting point read?
**A.** Its melting point is 233 to 234 °C.

**Q.** With Nc1cc(C(=O)O)ccc1-c1nc(-c2ccc(Cl)cc2)no1 [Example 64, 3-amino-4-[3-(4-chlorophenyl)-1,2,4-oxadiazol-5-yl]benzoic acid] as the compound, how does the melting point read?
**A.** Its melting point is 294 to 296 °C (dec.).

**Q.** With COC(=O)c1ccc(-c2nc(-c3ccc(C(F)(F)F)cc3)no2)c(NC(=O)C(F)(F)F)c1 [Example 65, methyl 3-trifluoroacetylamino-4-[3-(4-trifluoromethylphenyl)-1,2,4-oxadiazol-5-yl]benzoate] as the compound, how does the melting point read?
**A.** The melting point was 188 to 189 °C.

**Q.** For Nc1cc(C(=O)O)ccc1-c1nc(-c2ccc(C(F)(F)F)cc2)no1 [Example 66, 3-amino-4-[3-(4-trifluoromethylphenyl)-1,2,4-oxadiazol-5-yl]benzoic acid], which melting point is on record?
**A.** The melting point was greater than 300 °C.

**Q.** Which melting point does the source give for COC(=O)c1ccc(-c2nnc(-c3ccc(C(F)(F)F)cc3)o2)c([N+](=O)[O-])c1 [Example 67, methyl 3-nitro-4-[5-(4-trifluoromethylphenyl)-1,3,4-oxadiazol-2-yl]benzoate] here?
**A.** The melting point was 173 to 174 °C.

**Q.** For COC(=O)c1ccc(-c2nnc(-c3ccc(C(C)(C)C)cc3)o2)c([N+](=O)[O-])c1 [Example 68, methyl 4-[5-(4-t-butylphenyl)-1,3,4-oxadiazol-2-yl]-3-nitrobenzoate], which melting point is on record?
**A.** Its melting point is 142 to 143 °C.

**Q.** Which melting point does the source give for O=C(O)c1ccc(-c2nnc(-c3ccc(C(F)(F)F)cc3)o2)c([N+](=O)[O-])c1 [Example 69, 3-nitro-4-[5-(4-trifluoromethylphenyl)-1,3,4-oxadiazol-2-yl]benzoic acid] here?
**A.** Its melting point is 254 to 255 °C.

**Q.** Which melting point does the source give for CC(C)(C)c1ccc(-c2nnc(-c3ccc(C(=O)O)cc3[N+](=O)[O-])o2)cc1 [Example 70, 4-[5-(4-t-butylphenyl)-1,3,4-oxadiazol-2-yl]-3-nitrobenzoic acid] here?
**A.** Its melting point is 233 to 235 °C.

**Q.** Which melting point does the source give for Nc1cc(C(=O)O)ccc1-c1nnc(-c2ccc(C(F)(F)F)cc2)o1 [Example 71, 3-amino-4-[5-(4-trifluoromethylphenyl)-1,3,4-oxadiazol-2-yl]benzoic acid] here?
**A.** Its melting point is greater than 300 °C.

**Q.** Which melting point does the source give for CC(C)(C)c1ccc(-c2nnc(-c3ccc(C(=O)O)cc3N)o2)cc1 [Example 72, 3-amino-4-[5-(4-t-butylphenyl)-1,3,4-oxadiazol-2-yl]benzoic acid] here?
**A.** The melting point was 266 to 268 °C.

**Q.** For NC(=O)c1ccc(-c2ccc(-c3ccc(C(F)(F)F)cc3)o2)cc1 [Example 73, 4-[5-(4-trifluoromethylphenyl)-2-furyl]benzamide], which melting point is on record?
**A.** Its melting point is 263 to 264 °C.

**Q.** With COC(=O)c1ccc(-c2nc(-c3ccc(C(C)(C)C)cc3)no2)c(N)c1 [Example 74, methyl 3-amino-4-[3-(4-t-butylphenyl)-1,2,4-oxadiazol-5-yl]benzoate] as the compound, how does the melting point read?
**A.** The melting point was 195 to 196 °C.

**Q.** With COC(=O)c1ccc(-c2nc(-c3ccc(Cl)cc3)no2)c(N)c1 [Example 75, methyl 3-amino-4-[3-(4-chlorophenyl)-1,2,4-oxadiazol-5-yl]benzoate] as the compound, how does the melting point read?
**A.** Its melting point is 227 to 228 °C.
